Laboratory results as given in PMC5640650, “NatD promotes lung cancer progression by preventing histone H4 serine phosphorylation to activate Slug expression” (Nature Communications, 2017).

How the values were obtained:
Assay type in all cases: cell-based, human
histone H4 = assay: Western blot of histone H4 modifications, H1299 cells; conditions: total lysates, vs Scr
Source text: Fig. 2 NatD is required for lung cancer cell migration and invasion in vitro. a Quantitative real-time PCR analysis of NatD mRNA levels normalized to GAPDH in scrambled control cells (Scr) and NatD-KD1 and NatD-KD2 cells. Results are shown as mean ± s.d. from three independent experiments. Two-tailed Student’s t-test was used. **P < 0.01 compared to Scr control. b Western blot analysis of NatD and Nt-ac-H4 protein levels in scrambled, NatD-KD1, and NatD-KD2 cells. GAPDH and histone H4 served as loading controls. Blots are representative of three independent experiments. c Representative images from wound healing assay of scrambled, NatD-KD1, and NatD-KD2 cells from three independent experiments (left panels). Wound healing assay results are quantified in the histogram (right panel). Results are shown as mean ± s.d. from three independent experiments. Two-tailed Student’s t-test was used. **P < 0.01 compared to Scr control. d Representative images of the migration of scrambled, NatD-KD1, and NatD-KD2 cells in a time-lapse cell tracker migration assay from three independent experiments. Representative images of the migration (e) and invasion (f) of scramble, NatD-KD1, and NatD-KD2 cells with transwell assay from three independent experiments (top panel). Cell counts for the corresponding assays of at least four random microscope fields (×100 magnification). Cell migration and invasion are expressed as a percentage of control (bottom panel). Results are shown as mean ± s.d. from three independent experiments. Two-tailed Student’s t-test was used. **P < 0.01 compared to Scr control
Fig. 6 Nt-acetylation of histone H4 antagonizes phosphorylation of histone H4 serine 1 to regulate Slug expression. a Western blot analysis of indicated histone H4 modifications in Scr and NatD-KD H1299 cells. Histone H4 served as a loading control. b ChIP analysis of the enrichment of indicated histone H4 modifications on the Slug promoter in Scr and NatD-KD H1299 cells. IgG served as a negative control. Results are shown as mean ± s.d. from three independent experiments; two-tailed Student’s t-test, *P < 0.05, **P < 0.01 compared with the Scr control. c ChIP analysis of the enrichment of H3K4me3 and H3K27me3 on the Slug promoter in Scr and NatD-KD H1299 cells. IgG served as a negative control. Results are shown as mean ± s.d. from three independent experiments; two-tailed Student’s t-test, **P < 0.01 compared with the Scr control. d Western blot analysis of indicated proteins from H1299 cells overexpressing NatDΔ or wild-type NatD. Histone H4 served as a loading control. e ChIP analysis of the enrichment of Nt-ac-H4 and H4S1ph on Slug promoter in H1299 cells overexpressing NatDΔ or wild-type NatD. IgG served as a negative control. Results are shown as mean ± s.d. from three independent experiments; two-tailed Student’s t-test, *P < 0.05, **P < 0.01 compared with the wild-type control
Cellular proteins were extracted by RIPA lysis buffer at high salt concentration (420 mM NaCl), and western blot analysis was performed in accordance with standard protocols. Scans of enhanced chemiluminescence (ECL) films showing uncropped blots are presented in Supplementary Fig. 10. […]

H1299 cells = assay: Wound healing assay, H1299 cells; conditions: vs Scr
Source text: Fig. 2 NatD is required for lung cancer cell migration and invasion in vitro. a Quantitative real-time PCR analysis of NatD mRNA levels normalized to GAPDH in scrambled control cells (Scr) and NatD-KD1 and NatD-KD2 cells. Results are shown as mean ± s.d. from three independent experiments. Two-tailed Student’s t-test was used. **P < 0.01 compared to Scr control. b Western blot analysis of NatD and Nt-ac-H4 protein levels in scrambled, NatD-KD1, and NatD-KD2 cells. GAPDH and histone H4 served as loading controls. Blots are representative of three independent experiments. c Representative images from wound healing assay of scrambled, NatD-KD1, and NatD-KD2 cells from three independent experiments (left panels). Wound healing assay results are quantified in the histogram (right panel). […] Cell migration and invasion are expressed as a percentage of control (bottom panel). […]
The in vitro viability of H1299 cells was assessed using the Cell Counting Kit-8 (CCK-8, Dojindo, Japan) according to the manufacturer’s protocol. Flow cytometric analysis of apoptosis was assessed by Annexin V and PI staining using the Annexin V-APC Apoptosis Detection Kit (KeyGEN BioTECH, China) according to the manufacturer’s guide. […] The samples were analyzed by flow cytometry (Becton Dickinson, NJ, USA), and results were analyzed with FlowJo software according to the manufacturer’s instructions. […]

A549 cells = assay: Transwell migration and invasion assay, A549 cells; conditions: vs Scr
Procedure: The in vitro viability of H1299 cells was assessed using the Cell Counting Kit-8 (CCK-8, Dojindo, Japan) according to the manufacturer’s protocol. Flow cytometric analysis of apoptosis was assessed by Annexin V and PI staining using the Annexin V-APC Apoptosis Detection Kit (KeyGEN BioTECH, China) according to the manufacturer’s guide. For cell cycle analysis, cells were harvested and fixed at 4 °C overnight with 70% ethanol. Cells were washed twice with PBS, and their DNA was stained using a Cell Cycle Detection Kit (KeyGEN BioTECH, China). The samples were analyzed by flow cytometry (Becton Dickinson, NJ, USA), and results were analyzed with FlowJo software according to the manufacturer’s instructions. For the wound healing assay, cells were plated to confluence in a 6-well plate, and the cell monolayer was scratched using a pipette tip. Representative photos were taken using a digital camera mounted on an inverted microscope (Olympus) at indicated times. Live cell imaging was performed using the HoloMonitor M4 time-lapse cytometer (Phase Holographic Imaging, Sweden). […]
of A549 cells. […] (bottom) Quantification of cell migration and invasion expressed as a percentage of Scr control; mean ± s.d. from three independent experiments; two-tailed Student’s t-test, **P<0.01 compared to Scr control. […]

Row | Substance | level of Nt-ac-H4 (histone H4) | migration in wound healing assay (H1299 cells) | cell migration and invasion (transwell) (A549 cells) | level of H4R3me2a (histone H4) | level of H4R3me2s (histone H4) | level of H4S1ph (histone H4) | levels of H4K5ac, H4K8ac, or H4K12ac (histone H4) | level of Nt-ac-H4 (histone H4; listed as NatD knockdown)
1 | NatD-KD1: Human NatD shRNA KD1: 5′-GATGAAGAAGGTTATGTTA-3′, lentiviral (shRNA, lentiviral) | significantly reduced | migrated significantly more slowly | inhibits cell migration and invasion |  |  |  |  | 
2 | NatD-KD2: Human NatD shRNA KD2: 5′-GGTTGAATGTCTCCATTGA-3′, lentiviral (shRNA lentiviral) | significantly reduced | migrated significantly more slowly | inhibits cell migration and invasion | slightly increased | slightly decreased | significantly increased | No significant change | greatly decreased
